# Source: patent US20260285880A1, “SUBSTITUTED DIHYDROTHIENOPYRIMIDINE COMPOUND, PREPARATION METHOD THEREFOR, AND USE THEREOF” (SHANGHAI YIDI BIOTECHNOLOGY CO., LTD., priority 2023, published 2026)
# Like-named read-outs stand apart in the source and are kept apart here.
# Biological target: Flpin-293-PDE4B2 cells (Homo sapiens, UniProt Q07343)
# Assay: cell-based
# [1] = read-out: Cell Inhibition % @1 nM, 1 nM, Flpin-293-PDE4B2 cells
# [2] = read-out: Cell Inhibition % @10 nM, 10 nM, Flpin-293-PDE4B2 cells
# [3] = read-out: Cell Inhibition % @100 nM, 100 nM, Flpin-293-PDE4B2 cells
# Chain of Flpin-293-PDE4B2 cells (Q07343 1-564 isoform Q07343-2): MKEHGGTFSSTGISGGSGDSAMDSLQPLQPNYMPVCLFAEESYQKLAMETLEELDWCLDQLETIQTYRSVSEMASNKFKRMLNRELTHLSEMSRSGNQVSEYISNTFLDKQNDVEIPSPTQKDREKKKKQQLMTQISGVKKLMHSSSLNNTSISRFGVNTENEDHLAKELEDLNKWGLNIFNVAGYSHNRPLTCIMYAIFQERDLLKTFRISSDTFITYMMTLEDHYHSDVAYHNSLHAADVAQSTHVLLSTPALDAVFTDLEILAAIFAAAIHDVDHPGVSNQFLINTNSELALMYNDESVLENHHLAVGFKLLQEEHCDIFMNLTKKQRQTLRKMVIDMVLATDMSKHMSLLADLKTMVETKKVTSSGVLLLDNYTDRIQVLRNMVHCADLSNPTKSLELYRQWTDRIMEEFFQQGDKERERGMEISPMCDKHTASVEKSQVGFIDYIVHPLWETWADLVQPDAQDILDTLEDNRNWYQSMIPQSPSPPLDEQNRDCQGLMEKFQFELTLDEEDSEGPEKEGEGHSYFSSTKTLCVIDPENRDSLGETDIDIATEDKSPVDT
Compound,inhibition at 0.001 µM [1],inhibition at 0.01 µM [2],inhibition at 0.1 µM [3],inhibition at 0.001 µM (read-out: Cell Inhibition % @1 nM),inhibition at 0.01 µM (read-out: Cell Inhibition % @10 nM),inhibition at 0.1 µM (read-out: Cell Inhibition % @100 nM)
[O-][S+]1CCc2nc(N3CCc4cc(N5CCC(CO)C5)ccc4C3)nc(NC3(CO)CCC3)c21 (stereo not shown) [Compound 171],4.06%,36.5%,94.3%,,,
[O-][S+]1CCc2nc(N3CCc4cc(F)c(F)cc4C3)nc(NC3(CO)CCC3)c21 (stereo not shown) [Compound 95],-4.2%,6.8%,66.7%,,,
[O-][S+]1CCc2nc(N3CCc4cc(N5CC6(COC6)C5)ccc4C3)nc(NC3(CO)CCC3)c21 (stereo not shown) [Compound 164],6.23%,20%,61.1%,,,
[O-][S+]1CCc2nc(N3CC[C@H]4c5cnc(Cl)cc5OC[C@@H]4C3)nc(NC3(CO)CCC3)c21 (stereo partly shown) [Compound 117],5.32%,17.3%,61.6%,,,
[O-][S+]1CCc2nc(N3CCc4cc(N5CC[C@H](O)C5)ccc4C3)nc(NC3(CO)CCC3)c21 (stereo partly shown) [Compound 172],3.77%,46%,96.6%,,,
CN1CCN(c2ccc3c(c2)CCN(c2nc4c(c(NC5(CO)CCC5)n2)[S+]([O-])CC4)C3)C1=O (stereo not shown) [Compound 86],8.69%,63.1%,97.8%,,,
[O-][S+]1CCc2nc(N3CC[C@@H]4c5ccc(C(F)(F)F)cc5OC[C@H]4C3)nc(NC3(CO)CCC3)c21 (stereo partly shown) [Compound 111],8.07%,22.2%,81.1%,,,
COC[C@@H](CO)Nc1nc(N2CCc3cc(N4CCCC4)ccc3C2)nc2c1[S+]([O-])CC2 (stereo partly shown) [Compound 199],-0.51%,8.04%,61.6%,,,
Cn1ccc(-c2ccc3c(c2)CCN(c2nc4c(c(NC5(CO)CCC5)n2)[S+]([O-])CC4)C3)n1 (stereo not shown) [Compound 77],61%,99.4%,101%,,,
[O-][S+]1CCc2nc(N3CC[C@@H]4c5ccccc5OC[C@H]4C3)nc(NC3(CO)CCC3)c21 (stereo partly shown) [Compound 83],5.79%,47.8%,97.3%,,,
Cc1ccc2c(c1)OC[C@H]1CN(c3nc4c(c(NC5(CO)CCC5)n3)[S+]([O-])CC4)CC[C@H]21 (stereo partly shown) [Compound 112],12.3%,54.1%,99.4%,,,
[O-][S+]1CCc2nc(N3CCc4cc(-n5ccnc5)ccc4C3)nc(NC3(CO)CCC3)c21 (stereo not shown) [Compound 90],15%,65.8%,97.2%,,,
[O-][S+]1CCc2nc(N3CCc4c(c(NCCO)nc5cc(Cl)ccc45)C3)nc(NC3(CO)CCC3)c21 (stereo not shown) [Compound 103],2.83%,38.9%,95.4%,,,
Cn1cc(Nc2nc(N3CCc4cc(Cl)ccc4C3)nc3c2[S+]([O-])CC3)cn1 (stereo not shown) [Compound 141],11.4%,49.2%,96%,,,
[O-][n+]1cc2c(c3ccc(Cl)cc31)CCN(c1nc3c(c(NC4(CO)CCC4)n1)[S+]([O-])CC3)C2 (stereo not shown) [Compound 106],0.41%,21.2%,67.5%,,,
[O-][S+]1CCc2nc(N3CC[C@H]4c5ccc(Cl)cc5OC[C@H]4C3)nc(NC3(CO)CCC3)c21 (stereo partly shown) [Compound 116],2.17%,16.9%,73.4%,,,
CS(=O)(=O)c1ccc2c(c1)CCN(c1nc3c(c(NC4(CO)CCC4)n1)[S+]([O-])CC3)C2 (stereo not shown) [Compound 93],14%,61%,94.2%,,,
[O-][S+]1CCc2nc(N3CC[C@@H]4c5cc(Cl)ccc5OC[C@H]4C3)nc(NC3(CO)CCC3)c21 (stereo partly shown) [Compound 108],-0.82%,37.4%,95.1%,,,
[O-][S+]1CCc2nc(N3CCc4c(ncc5cc(Cl)ccc45)C3)nc(NC3(CO)CCC3)c21 (stereo not shown) [Compound 100],6%,47.7%,97.3%,,,
Cn1cnc(-c2ccc3c(c2)CCN(c2nc4c(c(NC5(CO)CCC5)n2)[S+]([O-])CC4)C3)n1 (stereo not shown) [Compound 94],34.8%,94.1%,100%,,,

Compound,inhibition at 0.001 µM [1],inhibition at 0.01 µM [2],inhibition at 0.1 µM [3],inhibition at 0.001 µM (read-out: Cell Inhibition % @1 nM),inhibition at 0.01 µM (read-out: Cell Inhibition % @10 nM),inhibition at 0.1 µM (read-out: Cell Inhibition % @100 nM)
[O-][S+]1CCc2nc(N3CCc4cc(-c5ncco5)ccc4C3)nc(NC3(CO)CCC3)c21 (stereo not shown) [Compound 84],32.9%,97%,101%,,,
NC(=O)c1ccc2c(c1)CCN(c1nc3c(c(NC4(CO)CCC4)n1)[S+]([O-])CC3)C2 (stereo not shown) [Compound 75],4.93%,24.9%,51.4%,,,
[O-][S+]1CCc2nc(N3CCc4cccc(Cl)c4C3)nc(NC3(CO)CCC3)c21 (stereo not shown) [Compound 21],,18.8%,79.2%,,,
[O-][S+]1CCc2nc(N3CCc4cc(N5CC(F)C5)ccc4C3)nc(NC3(CO)CCC3)c21 (stereo not shown) [Compound 89],3.47%,37.4%,95.3%,,,
C[C@H]1c2ccc(N3CCCC3)cc2CCN1c1nc2c(c(Nc3nnn(C)n3)n1)[S+]([O-])CC2 (stereo partly shown) [Compound 213],9.25%,29.6%,89%,,,
[O-][S+]1CCc2nc(N3CCc4cc(-n5cccn5)ccc4C3)nc(NC3(CO)CCC3)c21 (stereo not shown) [Compound 91],19.2%,86%,100%,,,
C[C@H]1c2ccc(N3CCCC3)cc2CCN1c1nc2c(c(Nc3cnn(C4CN(C)C4)c3)n1)[S+]([O-])CC2 (stereo partly shown) [Compound 209],4.48%,9.75%,61.7%,,,
C[C@H]1c2ccc(N3CCCC3)cc2CCN1c1nc2c(c(Nc3cnn(C)c3)n1)[S+]([O-])CC2 (stereo partly shown) [Compound 207],30.8%,94.4%,100%,,,
C[C@H]1c2ccc(N3CCCC3)cc2CCN1c1nc2c(c(NC3CCOCC3)n1)[S+]([O-])CC2 (stereo partly shown) [Compound 205],28.5%,92.4%,101%,,,
[O-][S+]1CCc2nc(N3CCc4cc(Cl)ccc4C3)nc(Nc3ccc(CCO)cc3)c21 (stereo not shown) [Compound 139],16.2%,78.6%,102%,,,
C[C@H]1c2ccc(N3CCCC3)cc2CCN1c1nc2c(c(Nc3ncnn3C)n1)[S+]([O-])CC2 (stereo partly shown) [Compound 217],2.48%,25%,84.5%,,,
C[C@H]1c2ccc(N3CCCC3)cc2CCN1c1nc2c(c(Nc3ccnn3CCO)n1)[S+]([O-])CC2 (stereo partly shown) [Compound 219],6.98%,32.6%,66.3%,,,
C[C@H]1c2ccc(N3CCCC3)cc2CCN1c1nc2c(c(NC3(CO)CCCC3)n1)[S+]([O-])CC2 (stereo partly shown) [Compound 221],11.3%,71.5%,99.7%,,,
[O-][S+]1CCc2nc(N3CCc4cc(Cl)ncc4C3)nc(NC3(CO)CCC3)c21 (stereo not shown) [Compound 78],,,,2.2%,32.1%,86.3%
Cn1nc(Cl)c2c3c(cnc21)CN(c1nc2c(c(NC4(CO)CCC4)n1)[S+]([O-])CC2)CC3 (stereo not shown) [Compound 105],7.53%,42.5%,93.5%,,,
C[C@H]1c2ccc(Br)cc2CCN1c1nc2c(c(NC3(CO)CCC3)n1)[S+]([O-])CC2 (stereo partly shown) [Compound 123],3.3%,29.6%,86.8%,,,
[O-][S+]1CCc2nc(N3CCc4cc(N5CCCC5)ccc4C3)nc(NC3(CO)CCC3)c21 (stereo not shown) [Compound 92],3.35%,43.7%,98.2%,,,
C[C@H]1c2ccc(N3CCCC3)cc2CCN1c1nc2c(c(NC3(CO)CC3)n1)[S+]([O-])CC2 (stereo partly shown) [Compound 203],14.8%,84.1%,99.9%,,,
[O-][S+]1CCc2nc(N3CCc4cc(N5C[C@H]6COC[C@H]6C5)ccc4C3)nc(NC3(CO)CCC3)c21 (stereo partly shown) [Compound 178],8.53%,68%,98.9%,,,
Cn1cc2c(n1)CN(c1nc3c(c(NC4(CO)CCC4)n1)[S+]([O-])CC3)CC2 (stereo not shown) [Compound 30],,11.3%,48%,,,
